Assay [1] concerns the target isolated recombinant JAK1 kinase domain (Homo sapiens (Human), UniProt P23458). The experiment in a line: JAK1 enzyme assay (Caliper LabChip, Ki). In kind it is biochemical. How it is done:
The activity of the isolated recombinant JAK1 and JAK2 kinase domain was measured by monitoring phosphorylation of a peptide derived from JAK3 ([…] fluorescently labeled on the N-terminus with 5-carboxyfluorescein) using the Caliper LabChip R technology (Caliper Life Sciences, Hopkinton, Mass.).

The subject of assay [2] is JAK1-dependent STAT6 phosphorylation in BEAS-2B human bronchial epithelial cells. The experiment in a line: JAK1 pathway assay: IL-13 stimulated STAT6 phosphorylation in BEAS-2B cells. Format: cell-based. The note with it: Homo sapiens, BEAS-2B, BEAS-2B cells, IL-13 stimulation; read-out: IL-13 p-STAT6 BEAS-2B IC50. An outline of the steps: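 BEAS-2B bronchial epithelial cells plated one day before, run in complete growth medium. Phospho-STAT6 in lysates measured by MesoScale Discovery; EC50 reported.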

For assay [3], the target named is isolated recombinant JAK2 kinase domain (Homo sapiens (Human), UniProt O60674). The assay can be described thus: JAK2 enzyme assay (Caliper LabChip, Ki). The conditions noted are these: read-out: JAK2 Ki.
Chain of isolated recombinant JAK2 kinase domain (O60674 849-1124): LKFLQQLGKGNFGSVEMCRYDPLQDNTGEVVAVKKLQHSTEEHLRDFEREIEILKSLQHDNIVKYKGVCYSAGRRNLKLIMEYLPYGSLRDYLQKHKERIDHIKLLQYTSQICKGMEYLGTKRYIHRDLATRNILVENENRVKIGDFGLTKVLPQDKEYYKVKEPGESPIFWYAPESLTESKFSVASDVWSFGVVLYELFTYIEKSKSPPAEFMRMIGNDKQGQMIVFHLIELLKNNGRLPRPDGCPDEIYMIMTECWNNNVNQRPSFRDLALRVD

Chain of isolated recombinant JAK1 kinase domain (P23458 875-1153): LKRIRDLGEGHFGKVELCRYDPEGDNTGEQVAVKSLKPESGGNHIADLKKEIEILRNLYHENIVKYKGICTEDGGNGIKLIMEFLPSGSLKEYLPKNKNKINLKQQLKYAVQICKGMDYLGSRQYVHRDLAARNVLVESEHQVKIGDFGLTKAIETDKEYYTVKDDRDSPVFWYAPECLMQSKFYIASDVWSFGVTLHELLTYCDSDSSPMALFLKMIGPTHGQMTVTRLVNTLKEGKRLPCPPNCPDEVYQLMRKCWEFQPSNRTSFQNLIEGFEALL

On to `O=C(Nc1cn(Cc2ncco2)nc1-c1cc2c(cc1OC(F)F)NCCS2)c1cnn2cccnc12` [Example 124, N-[3-[6-(difluoromethoxy)-3,4-dihydro-2H-1,4-benzothiazin-7-yl]-1-(oxazol-2-ylmethyl)pyrazol-4-yl]pyrazolo[1,5-a]pyrimidine-3-carboxamide], for which the Ki in assay [1] was determined as 0.25 nM; in assay [3] it was 0.15 nM. In addition, the IC50 in assay [2] worked out at 20 nM.
On the same counts, the results for `Cn1nnnc1Cn1cc(NC(=O)c2cnn3cccnc23)c(-c2cc3c(cc2OC(F)F)NCCS3)n1` [Example 127, N-[3-[6-(difluoromethoxy)-3,4-dihydro-2H-1,4-benzothiazin-7-yl]-1-[(1-methyltetrazol-5-yl)methyl]pyrazol-4-yl]pyrazolo[1,5-a]pyrimidine-3-carboxamide] are 0.12 nM, 0.06 nM and 14 nM.
On the same counts, the results for `Cn1nnc(Cn2cc(NC(=O)c3cnn4cccnc34)c(-c3cc4c(cc3OC(F)F)NCCS4)n2)n1` [Example 128, N-[3-[6-(difluoromethoxy)-3,4-dihydro-2H-1,4-benzothiazin-7-yl]-1-[(2-methyltetrazol-5-yl)methyl]pyrazol-4-yl]pyrazolo[1,5-a]pyrimidine-3-carboxamide] are 0.14 nM, 0.09 nM and 7 nM.
Regarding `CN(C)C(=O)Cn1cc(NC(=O)c2cnn3cccnc23)c(-c2cc3sncc3cc2OC(F)F)n1` [Example 129, N-[3-[5-(difluoromethoxy)-1,2-benzothiazol-6-yl]-1-[2-(dimethylamino)-2-oxo-ethyl]pyrazol-4-yl]pyrazolo[1,5-a]pyrimidine-3-carboxamide], the Ki in assay [1] is 0.2 nM; in assay [3], 0.47 nM. Further, the IC50 in assay [2] is 11 nM.
On the same counts, the results for `CCN(C)C(=O)Cn1cc(NC(=O)c2cnn3cccnc23)c(-c2cc3c(cc2OC(F)F)NCCO3)n1` [Example 130, N-[3-[6-(difluoromethoxy)-3,4-dihydro-2H-1,4-benzoxazin-7-yl]-1-[2-[ethyl(methyl)amino]-2-oxo-ethyl]pyrazol-4-yl]pyrazolo[1,5-a]pyrimidine-3-carboxamide] are 0.31 nM, 0.47 nM and 59 nM.
For `Cn1cc(Cn2cc(NC(=O)c3cnn4cccnc34)c(-c3cc4c(cc3OC(F)F)NCCS4)n2)nn1` [Example 131, N-[3-[6-(difluoromethoxy)-3,4-dihydro-2H-1,4-benzothiazin-7-yl]-1-[(1-methyltriazol-4-yl)methyl]pyrazol-4-yl]pyrazolo[1,5-a]pyrimidine-3-carboxamide], the values for the Ki in assay [1] and in assay [3] were 0.12 nM and 0.08 nM, respectively. Besides, in assay [2], the IC50 is 30 nM.
The like results for `O=C(Nc1cn(CC(=O)N2CCC(F)(F)C2)nc1-c1cc2c(cc1OC(F)F)NCCO2)c1cnn2cccnc12` [Example 132, N-[3-[6-(difluoromethoxy)-3,4-dihydro-2H-1,4-benzoxazin-7-yl]-1-[2-(3,3-difluoropyrrolidin-1-yl)-2-oxo-ethyl]pyrazol-4-yl]pyrazolo[1,5-a]pyrimidine-3-carboxamide] were, in that order, 0.36 nM, 0.4 nM and 31 nM.
On the same counts, the results for `Cn1nncc1Cn1cc(NC(=O)c2cnn3cccnc23)c(-c2cc3c(cc2OC(F)F)NCCO3)n1` [Example 133, N-[3-[6-(difluoromethoxy)-3,4-dihydro-2H-1,4-benzoxazin-7-yl]-1-[(3-methyltriazol-4-yl)methyl]pyrazol-4-yl]pyrazolo[1,5-a]pyrimidine-3-carboxamide] are 0.26 nM, 0.21 nM and 17 nM.
The like results for `O=C(Nc1cn(CC2(O)CCOCC2)nc1-c1cc2c(cc1OC(F)F)NCCO2)c1cnn2cccnc12` [Example 134, N-[3-[6-(difluoromethoxy)-3,4-dihydro-2H-1,4-benzoxazin-7-yl]-1-[(4-hydroxytetrahydropyran-4-yl)methyl]pyrazol-4-yl]pyrazolo[1,5-a]pyrimidine-3-carboxamide] were, in that order, 0.4 nM, 0.47 nM and 23 nM.
On to `Cn1nnnc1Cn1cc(NC(=O)c2cnn3cccnc23)c(-c2cc3c(cc2OC(F)F)NCCO3)n1` [Example 135, N-[3-[6-(difluoromethoxy)-3,4-dihydro-2H-1,4-benzoxazin-7-yl]-1-[(1-methyltetrazol-5-yl)methyl]pyrazol-4-yl]pyrazolo[1,5-a]pyrimidine-3-carboxamide], for which the Ki is 0.19 nM in assay [1] and 0.14 nM in assay [3]. Besides, the IC50 in assay [2] was found to be 26 nM.
For `Cn1nnc(Cn2cc(NC(=O)c3cnn4cccnc34)c(-c3cc4c(cc3OC(F)F)NCCO4)n2)n1` [Example 136, N-[3-[6-(difluoromethoxy)-3,4-dihydro-2H-1,4-benzoxazin-7-yl]-1-[(2-methyltetrazol-5-yl)methyl]pyrazol-4-yl]pyrazolo[1,5-a]pyrimidine-3-carboxamide], the Ki in assay [1] came to 0.23 nM; in assay [3], 0.17 nM. Also, in assay [2], the IC50 was 21 nM.
On the same counts, the results for `Cn1cc(NC(=O)c2cnn3cccnc23)c(-c2cc3c(cc2OC(F)F)NC(=O)CO3)n1` [Example 137, N-[3-[6-(difluoromethoxy)-3-oxo-4H-1,4-benzoxazin-7-yl]-1-methyl-pyrazol-4-yl]pyrazolo[1,5-a]pyrimidine-3-carboxamide] are 0.09 nM, 0.08 nM and 8 nM.
On the same counts, the results for `O=C(Nc1cn(CC(=O)N2CC(F)(F)C2)nc1-c1cc2c(cc1OC(F)F)NCCO2)c1cnn2cccnc12` [Example 138, N-[1-[2-(3,3-difluoroazetidin-1-yl)-2-oxo-ethyl]-3-[6-(difluoromethoxy)-3,4-dihydro-2H-1,4-benzoxazin-7-yl]pyrazol-4-yl]pyrazolo[1,5-a]pyrimidine-3-carboxamide] are 0.26 nM, 0.32 nM and 36 nM.
On the same counts, the results for `O=C(Nc1cn(C2COC2)nc1-c1cc2sncc2cc1OC(F)F)c1cnn2cccnc12` [Example 139, N-[3-[5-(difluoromethoxy)-1,2-benzothiazol-6-yl]-1-(oxetan-3-yl)pyrazol-4-yl]pyrazolo[1,5-a]pyrimidine-3-carboxamide] are 0.33 nM, 0.21 nM and 10 nM.
Take `N#CCn1cc(NC(=O)c2cnn3cccnc23)c(-c2cc3c(cc2OC(F)F)NCCS3)n1` [Example 140, N-[1-(cyanomethyl)-3-[6-(difluoromethoxy)-3,4-dihydro-2H-1,4-benzothiazin-7-yl]pyrazol-4-yl]pyrazolo[1,5-a]pyrimidine-3-carboxamide]: the values for the inhibitory constant (Ki) in assay [1] and in assay [3] were 0.09 nM and 0.06 nM, respectively. Moreover, the IC50 in assay [2] was found to be 4 nM.
`CN(C)C(=O)Cn1cc(NC(=O)c2cnn3cccnc23)c(-c2cc3cnsc3cc2OC(F)F)n1` [Example 143, N-[3-[6-(difluoromethoxy)-1,2-benzothiazol-5-yl]-1-[2-(dimethylamino)-2-oxo-ethyl]pyrazol-4-yl]pyrazolo[1,5-a]pyrimidine-3-carboxamide]: the figures for the Ki in assay [1] and in assay [3] were 0.22 nM and 0.97 nM, respectively. Besides, the IC50 in assay [2] was found to be 13 nM.

These data come from US11155557B2, “Pyrazolopyrimidine compounds and methods of use thereof” (Genentech, Inc., priority 2016, dated 2021).
